Values joined by “and” are separate entries in the source; they are usually repeats but may differ in a detail not shown here. Identical values can stand only once. Active and inactive are the calls of the source.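 Rule for the calls: active = compounds giving half or more protection of infected cells from virus-caused growth loss, again on retest; inactive = the rest.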 Where a SMILES comes first, the peptide text is derived from it. [ ]: non-standard residue; d: D form. The star is where a group is joined. ξ: configuration not given here. Dnp = O=[N+]([O-])c1ccc(*)c([N+](=O)[O-])c1; Bz = O=C(c1ccccc1)*; OBn = c1ccc(CO*)cc1; ξC = NC(CS)C(=O)O
System: CEM cells HIV-1 protection, formazan growth assay
Assay: NCI AIDS Antiviral Assay
Conditions: for IC50: measured here: growth of uninfected CEM cells
Summary of the method: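 Protection of CEM cells against HIV-1 was scored from cell growth (soluble formazan) across five concentrations, with parallel uninfected cells. Lack of protection may reflect toxicity.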

Row | Structure (SMILES) | EC50 | IC50 | outcome
1 | O=c1cc(N=Nc2ccc(Cl)cc2)[nH]c(=O)[nH]1 | > 2 µM | 0.851 µM | –
2 | O=C1CCC2(CC1CCS(=O)c1ccccc1)OCCO2 (stereo not drawn) | > 200 µM | > 200 µM | –
3 | CCOc1ccccc1NC(=O)C(=O)C(/C(=N/N)C(=O)OC)c1nc2ccc([N+](=O)[O-])cc2[nH]c1=O (stereo not drawn) | > 263 µM | > 263 µM | –
4 | O=Nc1ccccc1N=O | – | – | inactive
5 | NNC(=O)C(=O)NN=C(C(Cl)(Cl)CO)C(Cl)(Cl)CO | > 20.4 µM | > 20.4 µM | –
6 | CC(C)NCCNC(=O)c1ccccc1Nc1c(Cl)cccc1Cl | > 200 µM | 14.8 µM | –
7 | N#CCC(=O)N/N=C1/C(=O)N(c2cc(Cl)ccc2Cl)C(=O)C(=O)C1c1nc2ccccc2s1 (stereo not drawn) | – | – | inactive
8 | COC(=O)C(=O)C(C(=O)C(=O)Nc1ccc(C)c(C)c1)c1nc2ccc([N+](=O)[O-])cc2[nH]c1=O (stereo not drawn) | > 537 µM | 234 µM | –
9 | COC12c3ccccc3-c3ccccc3C1[C@@H](C(=O)O)[C@H]2C(=O)O (stereo partly drawn) | > 776 µM | > 776 µM | –
10 | COc1ccc(C2=C(OC(=O)N(C)C)c3cccn3-c3cc(C(F)(F)F)ccc3S2)cc1 | > 200 µM | > 200 µM | –
11 | CSc1ccc(/C=C2\CNC/C(=C\c3ccc(SC)cc3)C2=O)cc1 | > 200 µM | 58.9 µM | –
12 | CC(=O)CCn1ncc(Cl)c(Cl)c1=O | > 550 µM | 6.92 µM | –
13 | COc1ccc(C(c2ccccc2)(c2ccc(OC)cc2)N2C(=O)NC3C(CCCCC(=O)NCCCCCCOP(OCCC#N)N(C(C)C)C(C)C)SCC32)cc1 (stereo not drawn) | > 4.47 µM | > 4.47 µM | –
14 | Cc1ccc2c(c1-c1ccccc1)C(=O)OC2 | – | – | inactive
15 | CNC(=O)C1(C#N)C(c2ccccc2)C(C#N)(C(=O)NC)C1c1ccccc1 (stereo not drawn) | > 200 µM | 166 µM | –
16 | CC1(CCCO)CCCCCC(C)(CCCO)C1=O (stereo not drawn) | > 200 µM | 97.7 µM | –
17 | CCCOc1cc2c(c3oc(=O)cc(CCC)c13)C(=O)[C@H](C)[C@@H](C)O2 | > 200 µM | 5.5 µM | –
18 | O=C(Nc1ccccc1F)c1c(O)nc2sccn2c1=O | > 200 µM | 51.3 µM | –
19 | OC(c1ccc(-c2ccccc2)cc1)C(F)(F)c1nc2ccccc2o1 (stereo not drawn) | > 200 µM | 34.7 µM | –
20 | COC(=O)C1CCOC(C)N1C(=O)OC(C)(C)C (stereo not drawn) | > 200 µM | > 200 µM | –
21 | CCOC(=O)CCc1c(C)[nH]c2c(C)c3c([nH]c4ccc(Cl)cc43)c(C)c2c1=O | > 200 µM | 11 µM | –
22 | COC(=O)C1=C(C)C(=O)[C@H]2C(C(=O)OC)CCCC[C@@H]12 (stereo partly drawn) | > 200 µM | 129 µM | –

Row | Structure (SMILES) | EC50 | IC50 | outcome
23 | C(=C\c1ccc2ccccc2n1)/c1ccc2c(c1)OCO2 | > 200 µM | > 200 µM | –
24 | COC(=O)C(CSc1ccc([N+](=O)[O-])cc1[N+](=O)[O-])NC(=O)CNC(=O)c1ccccc1 (stereo not drawn) (Bz-Gly-[ξC](Dnp)-OMe) | > 15.5 µM | > 15.5 µM | –
25 | COc1c(Cl)cc(C(=CCCNC(=O)C[C@H]2CC[C@@]3(C)[C@@H](CC[C@@H]4[C@@H]3CC[C@]3(C)[C@@H](CC(=O)NCCC=C(c5cc(Cl)c(OC)c(C(=O)O)c5)c5cc(Cl)c(OC)c(C(=O)O)c5)CC[C@@H]43)C2)c2cc(Cl)c(OC)c(C(=O)O)c2)cc1C(=O)O | > 200 µM | 148 µM | –
26 | COc1ccc(C(=O)/C=C/c2ccc(OCCSCCCCCCCCCCSCCOc3ccc(/C=C/C(=O)c4ccc(OC)c(OC)c4)cc3)cc2)cc1OC | – | – | inactive
27 | CNc1c(Cl)cc(/C=C2\C=Cc3ccccc32)cc1Cl | > 17.4 µM | 12.9 µM | –
28 | COc1ccc(NC(=O)/C(=C/N2C(=O)/C(=C\C(C)=C\c3ccccc3)SC2=S)C(C)=O)cc1 | > 200 µM | 13.5 µM | –
29 | CN[C@H]1CCc2cc(OC)c(OC)c(OC)c2-c2ccc(OC)c(=O)cc21 | – | – | inactive
30 | CCOC(=O)NN(C(=O)OCC)C(=C(c1ccccc1)N1CCOCC1)N(NC(=O)OCC)C(=O)OCC | > 200 µM | > 200 µM | –
31 | CNc1ccc([N+](=O)[O-])cc1C(=O)N1CCC[C@H]1CO | > 200 µM | > 200 µM | –
32 | C/C(=C\c1ccccc1)C(O)S(=O)(=O)O (stereo not drawn) | – | – | inactive
33 | C=CC[P+](c1ccccc1)(c1ccccc1)c1ccccc1 | > 20 µM | 0.562 µM and 0.427 µM | –
34 | C[N+](C)(C)CCC#CC[N+]1(C)CCCC1 | – | – | inactive
35 | O=NC1C2C=CC(C2)C1Cl (stereo not drawn) | > 200 µM | > 200 µM | –
36 | NS(=O)(=O)c1ccc(CNC(=O)c2ccccc2SC(=O)CCC[n+]2ccccc2)cc1 | 4.79 µM | 13.8 µM | –
37 | CCOc1cc2c(c(OCC)c1O)CC[C@@H]1[C@@H]2CC[C@]2(C)[C@@H](O)CC[C@@H]12 | > 2 µM | 0.776 µM | –
38 | N#CC(N)=Nc1ccccc1 | > 617 µM | 347 µM | –
39 | NC(CCCCP(=O)(O)O)C(=O)O (stereo not drawn) | > 200 µM | > 200 µM | –
40 | CCN1CCN(c2nc3ccccc3c3c2CCOc2ccccc2-3)CC1 | – | – | inactive
41 | O=C1Oc2cc(O)ccc2C2OCNCC12 (stereo not drawn) | > 200 µM | > 200 µM | –
42 | COc1ccc2c(c1O)C(=O)C(CCC(=O)O)CC2 (stereo not drawn) | – | – | inactive
43 | N=c1c2ccccc2nc2oc3ccc(Cl)cc3n12 | > 200 µM | 102 µM | –
44 | C/C=C(/C1CC(=O)N2CCc3c([nH]c4ccccc34)C2C1)[Si](C)(C)C (stereo not drawn) | > 10.7 µM | > 10.7 µM | –

Row | Structure (SMILES) | EC50 | IC50 | outcome
45 | OC1OCC(COc2cc(Cl)c(Cl)cc2Cl)OC1O (stereo not drawn) | > 30.2 µM | > 30.2 µM | –
46 | C=CCOC1OC(CS(=O)(=O)O)C(O)C(O)C1O (stereo not drawn) | – | – | inactive
47 | COc1cc(OC)c2nc3occc3c(OC)c2c1 | > 363 µM | 58.9 µM | –
48 | N#Cc1ccc(C=NC23CC4CC(CC(C4)C2)C3)cc1 | > 67.6 µM | > 67.6 µM | –
49 | O=C1NC(Cc2ccccc2)C(=O)N2CCCC12 (stereo not drawn) | > 1020 µM | > 1020 µM | –
50 | O=C(CC1C(=O)c2ccccc2C1=C1C(=O)c2ccccc2C1=O)c1ccccc1 (stereo not drawn) | > 9.55 µM | 5.5 µM | –
51 | O=C(N/N=C/c1ccc(Br)cc1)N/N=C/c1ccc(Br)cc1 | > 200 µM | 31.6 µM | –
52 | c1ccc(-c2sc(-c3ccccc3)c3c2C(c2ccccc2)c2c(-c4ccccc4)sc(-c4ccccc4)c2C3c2ccccc2)cc1 (stereo not drawn) | – | – | inactive
53 | CCN(CC)C(=O)c1c(N2CCOCC2)cc(N(CC)CC)oc1=O | > 708 µM | > 708 µM | –
54 | COC(=O)c1ccc(N2CCOS(=O)OCC2)cc1OC(=O)c1ccccc1 | > 200 µM | 33.1 µM | –
55 | O=C(c1ccc([N+](=O)[O-])cc1)c1no[n+]([O-])c1C(=O)c1ccc([N+](=O)[O-])cc1 | – | – | inactive
56 | CCN(CC)CCOc1ccc(S(=O)(=O)c2ccc(OCCN(CC)CC)cc2)cc1 | > 200 µM | 39.8 µM | –
57 | CC(C)CC(NC(=O)OC(C)(C)C)C(=O)Nc1ccc(Nc2nc(F)nc(-c3c4ccccc4cn3C)n2)cc1 (stereo not drawn) | > 18.2 µM | 16.6 µM | –
58 | N#C/C(=C\c1ccc(Cl)cc1)c1nc2ccccc2c(=O)[nH]1 | – | – | inactive
59 | CS(C)=O | > 200 µM | > 200 µM | –
60 | CC(=O)Nc1ccc(SS(=O)(=O)c2ccc(NC(C)=O)cc2)cc1 | > 490 µM | 204 µM | –
61 | O=C(O)Cn1c(=O)ccc2ccccc21 | > 200 µM | > 200 µM | –
62 | Cc1cc(C)nc(NS(=O)(=O)c2ccc(Nc3c4ccccc4nc4c(C(=O)Nc5ccc(S(=O)(=O)N=C(N)N)cc5)cccc34)cc2)n1 | 49 µM | 51.3 µM | –
63 | CC[C@@]1(O)C(=O)OCc2c1cc1n(c2=O)Cc2c-1nc1ccccc1c2Cl | > 10 µM | 0.0331 µM | –
64 | C=Cc1c(C#N)nc(C)c(C)c1-c1ccc(OC)c(OC)c1OCc1ccccc1 | > 200 µM | 14.1 µM | –
65 | Nc1ncnc2nc(C(O)C(O)C(O)CO)[nH]c12 (stereo not drawn) | > 102 µM | > 102 µM | –
66 | O=c1[nH]c2ccccc2c(=O)n1/N=C/c1ccc(Cl)cc1 | > 200 µM | > 200 µM | –

Row | Structure (SMILES) | EC50 | IC50 | outcome
67 | Cn1cnnc1SC(F)(F)c1nc2ccccc2o1 | 191 µM | > 200 µM | –
68 | Cc1nn(C(=O)CC(=O)Nc2ccc(Cl)cc2)c(C)c1N=Nc1ccccc1F | – | – | inactive
69 | CC1=C/C(=N\O)C(C(O)(C(F)(F)F)C(F)(F)F)C(C)(C)C1 (stereo not drawn) | > 200 µM | 135 µM | –
70 | Nc1ncnc2c1ncn2C(Cl)=C(Cl)Cl | > 200 µM | 115 µM | –
71 | CSc1nc(NC2OC(CO)C(O)C(O)C2O)cc(=O)[nH]1 (stereo not drawn) | – | – | inactive
72 | O=c1[nH]nc(Cc2ccccc2)n1/N=C/c1ccccc1O | > 200 µM | 85.1 µM | –
73 | O=c1oc2ccccc2n1CCN1CCCCC1 | > 200 µM | > 200 µM | –
74 | CCCCCCCCCCCc1noc2c1C(=O)CCC2 | > 24.5 µM | > 24.5 µM | –
75 | Cc1cn(COCCCO[Si](C)(C)C(C)(C)C)c(=O)[nH]c1=O | 112 µM | 174 µM | –
76 | OC(c1ccccc1)(c1ccccc1)C1CC1c1ccncc1 (stereo not drawn) | > 200 µM | 117 µM | –
77 | O=S(=O)(c1ccccc1)S(=O)(=O)c1ccccc1 | > 47.9 µM | > 47.9 µM | –
78 | COC(=O)c1ccc(OCc2ccc3oc(=O)c(-c4ccccc4)nc3c2)cc1 | > 1.41 µM | > 1.41 µM | –
79 | C1=CC2C(C3CN(c4ccccc4)N=C13)C1C3C4C=CC21C=CC43 (stereo not drawn) | > 200 µM | > 200 µM | –
80 | CC(=O)C(=Cc1cccc(Br)c1)C(C)=O | > 135 µM | 7.41 µM | –
81 | N#C/C(=C1\SC(N=Nc2ccccc2)C(=O)N1c1ccccc1)c1nc2ccccc2[nH]1 (stereo not drawn) | > 6.03 µM | > 6.03 µM | –
82 | NC(=O)c1c(-c2ccccc2)c(-c2ccccc2)cc2c(=O)c3ccccc3[nH]c12 | – | – | inactive
83 | C[N+](C)(C)CCC[N+](C)(C)CCN1C(=O)c2cccc3cccc(c23)C1=O | > 200 µM | > 200 µM | –
84 | NC(CCC(=O)OCc1ccccc1)C(=O)NC(CCC(=O)OCc1ccccc1)C(=O)O (stereo not drawn) (H-Glu(OBn)-Glu(OBn)-OH; configuration not given here) | > 1000 µM | > 1000 µM | –
85 | CC1(C)O[C@H]2[C@H](O)C[C@](O)(CO)C[C@H]2O1 | – | – | inactive
86 | COc1ccc(NC(=O)Nc2onc(C)c2C)c(Cl)c1 | > 191 µM | 151 µM | –
87 | O=C(NCC(O)CNC(=O)C(F)(F)F)C(F)(F)F | – | – | inactive
88 | COc1ccc(C2=NC(CO)[C@H](c3ccccc3)O2)cc1OC (stereo partly drawn) | > 219 µM | > 219 µM | –
